Assay results from US7608761B2, “Method for disease control in MON89788 soybean” (Monsanto Technology LLC, priority 2005, dated 2009).

How the values were obtained:
[1] = test system: Asian Soybean Rust (ASR) (Loxley Al isolate); experiment: Growth chamber detached soybean leaf assay, ASR on MON89788; format: in vivo, Phakopsora sp.
Experimental: Growth chamber and greenhouse assays were conducted to determine if glyphosate treatments (Roundup® WeatherMax) decreased the disease severity of Asian Soybean Rust (ASR) on MON89788. Growth chamber assays were conducted following a detached leaf assay method. Plants of MON89788 were grown in the greenhouse and leaves from the 3rd trifoliate were detached and placed in 6-well trays with water. Five treatments were evaluated: (1) an untreated check inoculated with spores of ASR (Loxley Al isolate); (2) leaf tissue of MON89788 inoculated with ASR spores and treated with glyphosate post-sporulation (13 days after inoculation with spores (DAI)); (3) MON89788 treated with 1× rate (0.75 lb/acre) of Roundup® WeatherMax 5 DAI; (4) MON89788 treated with […] of Roundup® WeatherMax 5 DAI; and (5) MON89788 treated with 3× rate of Roundup® WeatherMax 5 DAI.
The leaves were rated for disease severity 12 DAI, 20 DAI, and 25 DAI.
The analysis of the disease progression is illustrated in FIG. 2 and measured as the Area Under Disease Progress Curve (AUDPC) for the same material summarized in FIG. 1. […] The disease progression was reduced for all glyphosate treatments at 5DAI and the 2× rate post-sporulation.

Asian Soybean Rust (ASR) = experiment: Greenhouse assay on intact MON89788 plants, ASR; format: in vivo, Phakopsora sp.
Experimental: Greenhouse assays on intact MON89788 plants were treated with 1×, 2×, and 3× rates of Roundup® WeatherMax at 6 DBI (days before inoculation) and 9 DAI. Results for this experiment were collected 17 DAI.

[2] = test system: Aerial blight (Rhizoctonia solani); experiment: Greenhouse disease severity on MON89788, Aerial blight; format: in vivo; details: for Aerial Blight disease severity (DS): 1-9 scale
Experimental: (§1) Soybean plants comprising event MON89788 and grown under standard conditions in a greenhouse were treated with 1×, 2× or 3× concentrations of glyphosate and inoculated with the plant pathogens 1 DBI, 1 DAI and 4 DAI. Disease symptoms for each disease was rated on a 1-9 scale as an approximate measure of disease severity (DS)occurring on the leaves, 1 is no symptoms, 2 is up to 10% of the leaf infected, 3 is 11-20% of the leaf infected, 4 is 21-35%, 5 is 36-50%, 7 is 66-75%, 8 is 76-85%, 9 is greater than 85% of the leaf is infected and showing disease symptoms.

[3] = test system: Cercospora leaf blight (Cercospora carotae); experiment: Greenhouse disease severity on MON89788, Cercospora leaf blight; format: in vivo; design: key to Cercospora Leaf Blight disease severity (DS): 1 = no symptoms; 2 = ≤10% leaf infected … 9 = >85% leaf infected; details: 1×, 2× or 3×; 1 DBI, 1 DAI and 4 DAI
Experimental: as §1

Cercospora leaf blight = experiment: as above; format: in vivo, Cercospora carotae; design: key to Cercospora Leaf Blight disease severity (DS): 1 = no symptoms; 2 = ≤10% leaf infected … 9 = >85% leaf infected; details: 1-9 scale
Experimental: as §1

[4] = test system: Frogeye Leafspot (Cercospora sojina); experiment: Greenhouse disease severity on MON89788, Frogeye Leafspot; format: in vivo; design: key to Frogeye disease severity (DS): 1 = no symptoms; 2 = ≤10% leaf infected … 9 = >85% leaf infected; details: for Frogeye disease severity (DS): 1-9 scale
Experimental: as §1

powdery mildew disease = experiment: Powdery mildew disease control on MON89788; format: in vivo, Microsphaera diffusa; details: for DS Mean (powdery mildew): treated 1 DBI, no spray control 4.65
Source text: The mean disease severity score for the no spray control was 4.65, the glyphosate treatments provided a high level of disease control at all treatment rates.

[5] = 1×, 2× or 3×, 1 DBI, 1 DAI and 4 DAI

O=C(O)CNCP(=O)(O)O [glyphosate, N-phosphonomethylglycine]
Area Under Disease Progress Curve (AUDPC) ([1]; 2× rate): lower compared to other treatments | disease progression (AUDPC) ([1]; 2× rate post-sporulation): reduced | Area Under Disease Progress Curve (AUDPC) ([1]; 3× rate): lower compared to other treatments | disease progression (AUDPC) ([1]; all glyphosate treatments at 5DAI): reduced | ASR sporulation ([1]; post-disease development/sporulation treatments): appeared to arrest sporulation | levels of ASR infection and disease (Asian Soybean Rust (ASR); 1×, 2×, 3× at 6 DBI or 9 DAI, all except 1× at 6 DBI, collected 17 DAI): lower levels of ASR infection and disease | rate of ASR disease development (Asian Soybean Rust (ASR); pre-inoculation treatments): appeared to slow the rate of disease development | levels of ASBR (Asian Soybean Rust (ASR); split treatments (1× pre+1× post-inoculation)): reduced levels of ASBR similar to single 2× and 3× pre- or post-inoculation | Aerial Blight disease severity (DS) ([2]; 1 day post inoculation, 1X): 5.0 | Aerial Blight disease severity (DS) ([2]; 1 day post inoculation, 2X): 6.4 | Aerial Blight disease severity (DS) ([2]; 1 day post inoculation, 3X): 6.9 | Aerial Blight disease severity (DS) ([2]; 1 day pre inoculation, 1X): 7.1 | Aerial Blight disease severity (DS) ([2]; 1 day pre inoculation, 3X): 8.0 | Aerial Blight disease severity (DS) ([2]; 4 days post inoculation, 1X): 7.6 | Aerial Blight disease severity (DS) ([2]; 4 days post inoculation, 2X): 4.4 | Aerial Blight disease severity (DS) ([2]; 4 days post inoculation, 3X): 7.9 | disease severity control, Aerial blight [2, 5]: preventative and curative disease severity control | disease severity control, Cercospora leaf blight [3]: preventative and curative disease severity control | Cercospora Leaf Blight disease severity (DS) (Cercospora leaf blight; 1 day post inoculation, 1X): 2.8 | Cercospora Leaf Blight disease severity (DS) (Cercospora leaf blight; 1 day post inoculation, 2X): 6.4 | Cercospora Leaf Blight disease severity (DS) (Cercospora leaf blight; 1 day post inoculation, 3X): 6.5 | Cercospora Leaf Blight disease severity (DS) (Cercospora leaf blight; 1 day pre inoculation, 1X): 2.8 | Cercospora Leaf Blight disease severity (DS) (Cercospora leaf blight; 1 day pre inoculation, 2X): 6.1 | Cercospora Leaf Blight disease severity (DS) (Cercospora leaf blight; 1 day pre inoculation, 3X): 3.8 | Cercospora Leaf Blight disease severity (DS) (Cercospora leaf blight; 4 days post inoculation, 1X): 3.3 | Cercospora Leaf Blight disease severity (DS) (Cercospora leaf blight; 4 days post inoculation, 2X): 3.2 | Cercospora Leaf Blight disease severity (DS) (Cercospora leaf blight; 4 days post inoculation, 3X): 4.9 | Frogeye disease severity (DS) ([4]; 1 day post inoculation, 1X): 3.4 | Frogeye disease severity (DS) ([4]; 1 day post inoculation, 2X): 3.3 | Frogeye disease severity (DS) ([4]; 1 day post inoculation, 3X): 7.2 | Frogeye disease severity (DS) ([4]; 1 day pre inoculation, 1X): 2.7 | Frogeye disease severity (DS) ([4]; 1 day pre inoculation, 2X): 3.7 | Frogeye disease severity (DS) ([4]; 1 day pre inoculation, 3X): 3.8 | Frogeye disease severity (DS) ([4]; 4 days post inoculation, 1X): 3.7 | Frogeye disease severity (DS) ([4]; 4 days post inoculation, 2X): 5.3 | Frogeye disease severity (DS) ([4]; 4 days post inoculation, 3X): 2.3 | disease severity control, Frogeye Leafspot [4, 5]: preventative and curative disease severity control | DS Mean (powdery mildew) (powdery mildew disease; 0.75 lb ae/a (1X)): 1 | DS Mean (powdery mildew) (powdery mildew disease; 1.5 lb ae/a (2X)): 1 | DS Mean (powdery mildew) (powdery mildew disease; 2.25 lb ae/a (3X)): 1 | control of powdery mildew disease (powdery mildew disease; treated 1 DBI with any of the three rates): high level of control
